Consider 4 compounds from patent publication EP2535414B1 (priority 2003, dated 2005).

Data set [1] has as its target B. licheniformis strain B6 glyphosate-N-acetyltransferase (GAT), native, B6, SEQ ID NO:7 (Bacillus licheniformis, UniProt Q65LG7). Briefly: Apparent KM for Acetyl CoA and kcat of purified GAT, mass spectrometric detection of N-acetyl glyphosate. Type of data set: biochemical.
For data set [2], the target named is non-native GAT polypeptide 25-8H7 (SEQ ID NO:907), glyphosate-N-acetyltransferase (Bacillus licheniformis, UniProt Q65LG7). Briefly: GAT activity with respect to glyphosate, aspartate and serine (Table 21), DTNB read-out. The note with it: AcCoA as acetyl donor, 25 mM Hepes, pH 6.8, 10% ethylene glycol. The class given is biochemical. The procedure:
(§1) GAT activity of several GAT polypeptides of the disclosure was evaluated with respect to a number of amino acid substrates. The GAT polypeptide, AcCoA and amino substrate were incubated in 25 mM Hepes, pH 6.8, 10% ethylene glycol in the wells of a 96-well polystyrene plate. After 30 minutes, the reactions were stopped by the addition of 30 µl of 10 mM 5, 5'-dithiobis-2-nitrobenzoate (DTNB) in 500 mM Tris, pH 7.5. After 2 minutes, absorbance was read at 412 nm in a Spectramax Plus plate reader (Molecular Devices, Sunnyvale, CA).
(§2) Activity with the other protein amino acids was either undetected or less than 3% that of GAT activity towards glyphosate as the substrate. […] The percentages refer to percent activity relative to activity of the GAT polypeptide towards the substrate, glyphosate. Some of the data is shown below in Table 21. Table 21: GAT activity with respect to Glyphosate, Aspartate and Serine

The target in data set [3] is non-native GAT polypeptide 17-15H3 (SEQ ID NO:601), glyphosate-N-acetyltransferase (Bacillus licheniformis, UniProt Q65LG7). The description is as above. The note with it: AcCoA as acetyl donor, 25 mM Hepes, pH 6.8, 10% ethylene glycol. The class given is biochemical. The procedure: as §1, §2
In data set [4] the target is native GAT polypeptide 401 (SEQ ID NO:6), glyphosate-N-acetyltransferase (Bacillus licheniformis, UniProt Q65LG7). The description is as above. The class given is biochemical. The note with it: AcCoA as acetyl donor, 25 mM Hepes, pH 6.8, 10% ethylene glycol. As to the method:
as §1, §2

For data set [5], the target named is GAT20-30C6 (SEQ ID NO:683), evolved glyphosate-N-acetyltransferase, unmodified (Bacillus licheniformis, UniProt Q65LG7). The data set is described as follows: GAT kinetics of active-site mutants, 0 KCl, Bradford protein assay (Table 12). Type of data set: biochemical. As to the method:
(§3) KM was calculated from the initial reaction rates obtained from concentrations of glyphosate ranging from 0.125 to 10 mM, using the Lineweaver-Burke transformation of the Michaelis-Menten equation. kcat/KM was determined by dividing the value determined for kcat by the value determined for KM.
(§4) The amino acids aspartic acid (Asp, D), histidine (His, H) and cysteine (Cys, C) are known to be associated with the active sites of various acetyltransferase enzymes. To determine if any such residues play a role in GAT activity, all D, C, and H residues of GAT20-30C6 (SEQ ID NO:683) were individually mutated to alanine (Ala, A) and the mutated enzymes assayed for N-acetylglyphosate activity. […]

Data set [6] deals with GAT20-30C6 (SEQ ID NO:683) variant 20-30C6 H138A. Described as above. The class given is biochemical. As to the method: as §3, §4
Data set [7] has as its target GAT20-30C6 (SEQ ID NO:683) variant 20-30C6 H138R (Bacillus licheniformis, UniProt Q65LG7, form not given/H138R). The description is as above. Type of data set: biochemical. The procedure: as §3, §4
The target of data set [8] is GAT20-30C6 (SEQ ID NO:683) variant 20-30C6 H41A (Bacillus licheniformis, UniProt Q65LG7, form not given/H41A). Described as above. The class given is biochemical. The procedure:
as §3, §4

The target in data set [9] is GAT20-30C6 (SEQ ID NO:683) variant 20-30C6 H138S (Bacillus licheniformis, UniProt Q65LG7, form not given/H138S). Described as above. The class given is biochemical. As to the method: as §3, §4
Data set [10] relates to CC(=O)SCCNC(=O)CCNC(=O)[C@H](O)C(C)(C)COP(=O)(O)OP(=O)(O)OC[C@H]1O[C@@H](n2cnc3c(N)ncnc32)[C@H](O)[C@@H]1OP(=O)(O)O. Briefly: purified protein, by the assay type. The note with it: other: 5 mM glyphosate, 0.19 µM GAT, 5 mM morpholine pH 7.7, 50% methanol.
Another data set deals with O=C(O)CNCP(=O)(O)O. The data set is described as follows: Apparent KM for glyphosate of purified GAT, continuous spectrophotometric assay at 235 nm. The note with it: other: saturating (200 µM) Acetyl CoA, 1 µM purified GAT, 5 mM morpholine pH 7.7, 20 % ethylene glycol, 37.0 °C. The class given is biochemical, B. licheniformis. The source says: Genomic DNA from B. licheniformis strain B6 was purified, partially digested with Sau3A1 and fragments of 1-10 Kb were cloned into an E. coli expression vector. A clone with a 2.5 kb insert conferred the glyphosate-N-acetyltransferase (GAT) activity on the E. coli host as determined with mass spectrometry analysis. […] Subsequent cloning of this open reading frame confirmed that it encoded the GAT enzyme. The gene encoding the GAT enzyme of B6 was transformed into E. coli strain XL1 Blue. A 10% innoculum of a saturated culture was added to Luria broth, and the culture was incubated at 37° C for 1 hr. Expression of GAT was induced by the addition of IPTG at a concentration of 1 mM. The culture was incubated a further 4 hrs, following which, cells were harvested by centrifugation and the cell pellet stored at -80°C.
Lysis of the cells was effected by the addition of 1 ml of the following buffer to 0.2 g of cells: 25 mM HEPES, pH 7.3, 100 mM KCl and 10% methanol (HKM) plus 0.1 mM EDTA, 1 mM DTT, 1 mg/ml chicken egg lysozyme, and a protease inhibitor cocktail obtained from Sigma and used according to the manufacturers recommendations. After 20 minutes incubation at room temperature (e.g., 22-25°C), lysis was completed with brief sonication. The lysate was centrifuged and the supernatant was desalted by passage through Sephadex G25 equilibrated with HKM. […]

For orientation: Km means the concentration of substrate that gives half-maximal velocity. On to `CC(=O)SCCNC(=O)CCNC(=O)[C@H](O)C(C)(C)COP(=O)(O)OP(=O)(O)OC[C@H]1O[C@@H](n2cnc3c(N)ncnc32)[C@H](O)[C@@H]1OP(=O)(O)O` [Acetyl CoA], for which, in data set [1] (read-out: apparent KM for Acetyl CoA, 5 mM glyphosate, 0.19 µM GAT, 5 mM morpholine pH 7.7, 50% methanol), the Km was around 2 µM.
Take `N[C@@H](CO)C(=O)O` [Serine, L-serine]: the “kcat±SE” value in [2] is 6.47 ± 0.308 s⁻¹; in [3], 242 + 15.8 min^-1; in [4], 14.2 s⁻¹.
Usually kcat stands for the maximal rate divided by the concentration of active sites. Regarding `O=C(O)CNCP(=O)(O)O` [glyphosate, N-phosphonomethylglycine], the kcat in data set [1] (calculated from Vmax at a known concentration of enzyme, acetylation of glyphosate by Acetyl CoA) was 0.1 s⁻¹; in [5], 6.43 s⁻¹; in [6], below 0.00033 s⁻¹; in [7], 0.738 s⁻¹; in [8], 3.47 s⁻¹; in [9] it was 0.0892 s⁻¹. The “kcat±SE” value in [2] was 24.67 ± 1.09 s⁻¹; in data set [3], 1150 ± 27.6 min⁻¹; in data set [4] it was 0.0892 ± 0.000717 s⁻¹.
Regarding “B. licheniformis strain B6 glyphosate-N-acetyltransferase (GAT), native, B6, SEQ ID NO:7 (Bacillus licheniformis DSM 13 = ATCC 14580)”, the Km in data set [10] is on record as 2 µM. Besides, in the data set with O=C(O)CNCP(=O)(O)O, the Michaelis constant (Km) came out at 2900 ± 200 µM and the kcat turned out to be 0.1 s⁻¹.
